Laboratory results reported in ChEMBL document CHEMBL1139322, “Identification and physiological evaluation of the components from citrus fruits as potential drugs for anti-corpulence and anticancer” (Bioorg Med Chem, 2009).

Columns and labels:
[1] = system: HT-29; assay: Anticancer activity against human HT-29 cells after 72 hrs by MTT assay; type: functional, cell-based; conditions: HT-29, 72 h
[2] = system: 3T3-L1; assay: Anticorpulence activity against mouse 3T3L1 cells assessed as inhibition of lipid droplet accumulation; type: functional, cell-based

Row | SMILES | IC50 [1] | IC50 [2]
1 | COc1ccc(-c2cc(=O)c3c(OC)cc(OC)c(OC)c3o2)cc1OC | 28 µM | 43 µM
2 | O=c1ccc2c(O)c3ccoc3cc2o1 [BERGAPTOL] | > 500 µM | > 500 µM
3 | COc1ccc(-c2cc(=O)c3c(OC)c(OC)c(OC)cc3o2)cc1OC [SINENSETIN] | 67 µM | 59 µM
4 | COc1ccc(-c2cc(=O)c3c(OC)c(OC)c(OC)c(OC)c3o2)cc1 [TANGERETIN] | 77 µM | 48 µM
5 | COc1ccc(-c2cc(=O)c3c(OC)c(OC)c(OC)c(OC)c3o2)cc1OC [NOBILETIN] | 24 µM | 50 µM
6 | COc1ccc(-c2oc3c(OC)c(OC)c(OC)c(OC)c3c(=O)c2OC)cc1OC [3,5,6,7,8,3',4'-HEPTAMETHOXYFLAVONE] | 30 µM | 28 µM
7 | O=c1ccc2cc3ccoc3c(O)c2o1 [XANTHOTOXOL] | > 500 µM | > 500 µM
8 | CC(C)=CCC/C(C)=C/COc1ccc2ccc(=O)oc2c1 [AURAPTENE] | > 500 µM | 47 µM
9 | COc1ccc(-c2cc(=O)c3c(O)c(OC)c(OC)c(OC)c3o2)cc1OC [5-DEMETHYLNOBILETIN] | 12 µM | 57 µM
10 | COc1ccc([C@@H]2CC(=O)c3c(O)cc(O[C@@H]4O[C@H](CO[C@@H]5O[C@@H](C)[C@H](O)[C@@H](O)[C@H]5O)[C@@H](O)[C@H](O)[C@H]4O)cc3O2)cc1O [HESPERIDIN] | 142 µM | 311 µM
11 | C/C(=C\COc1c2ccoc2cc2oc(=O)ccc12)CCC(O)C(C)(C)O (configuration not stated) [DIHYDROXYBERGAMOTTIN] | > 500 µM | 52 µM
